Measurements published in the supplement of paper PMC4862054.

Tests used:
Conditions in all cases: incubation time: 72 h
BT-474 [1] = experiment: normalised response (% of control), CellTox Green; higher = less cell death (100 = DMSO, 0 = benzethonium chloride kill control)
In short: (§1)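 The table gives the normalised signal for a single concentration in each entry. Breast cancer cell lines were seeded (20 µl suspension) into 384-well plates holding compound at 5 concentrations in 10-fold steps over a compound-specific 10,000-fold range and incubated 72 h, then read for CellTox Green fluorescence (485/520 nm) and CellTiter-Glo luminescence. Normalisation on each plate used 0.1 % DMSO (100) and a positive kill control (0).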

BT-549 [2] = experiment: as above
In short: as §1

CAL-120 [3] = experiment: as above
In short: as §1

CAL-148 [4] = experiment: as above
In short: as §1

CAL-51 [5] = experiment: as above
In short: as §1

CAL-85-1 [6] = experiment: as above
In short: as §1

DU-4475 [7] = experiment: as above
In short: as §1

HCC1143 [8] = experiment: as above
In short: as §1

HCC1599 [9] = experiment: as above
In short: as §1

HCC1937 [10] = experiment: as above
In short: as §1

HDQ-P1 [11] = experiment: as above
In short: as §1

Hs578T [12] = experiment: as above
In short: as §1

MCF-10A [13] = experiment: as above
In short: as §1

MDA-MB-231 [14] = experiment: as above
In short: as §1

MDA-MB-436 [15] = experiment: as above
In short: as §1

MDA-MB-453 [16] = experiment: as above
In short: as §1

MDA-MB-468 [17] = experiment: as above
In short: as §1

MFM-223 [18] = experiment: as above
In short: as §1

BT-474 [19] = experiment: normalised response (% of control), CellTiter-Glo; higher = more viable cells (100 = DMSO, 0 = benzethonium chloride kill control)
In short: as §1

BT-549 [20] = experiment: as above
In short: as §1

CAL-120 [21] = experiment: as above
In short: as §1

CAL-148 [22] = experiment: as above
In short: as §1

CAL-51 [23] = experiment: as above
In short: as §1

CAL-85-1 [24] = experiment: as above
In short: as §1

DU-4475 [25] = experiment: as above
In short: as §1

HCC1143 [26] = experiment: as above
In short: as §1

HCC1599 [27] = experiment: as above
In short: as §1

HCC1937 [28] = experiment: as above
In short: as §1

HDQ-P1 [29] = experiment: as above
In short: as §1

Hs578T [30] = experiment: as above
In short: as §1

MCF-10A [31] = experiment: as above
In short: as §1

MDA-MB-231 [32] = experiment: as above
In short: as §1

MDA-MB-436 [33] = experiment: as above
In short: as §1

MDA-MB-453 [34] = experiment: as above
In short: as §1

MDA-MB-468 [35] = experiment: as above
In short: as §1

MFM-223 [36] = experiment: as above
In short: as §1

SK-BR-3 = experiment: as above
In short: as §1

Row | Compound | normalised response (BT-474 [1]) [%] | normalised response (BT-549 [2]) [%] | normalised response (CAL-120 [3]) [%] | normalised response (CAL-148 [4]) [%] | normalised response (CAL-51 [5]) [%] | normalised response (CAL-85-1 [6]) [%] | normalised response (DU-4475 [7]) [%] | normalised response (HCC1143 [8]) [%] | normalised response (HCC1599 [9]) [%] | normalised response (HCC1937 [10]) [%] | normalised response (HDQ-P1 [11]) [%] | normalised response (Hs578T [12]) [%] | normalised response (MCF-10A [13]) [%] | normalised response (MDA-MB-231 [14]) [%] | normalised response (MDA-MB-436 [15]) [%] | normalised response (MDA-MB-453 [16]) [%] | normalised response (MDA-MB-468 [17]) [%] | normalised response (MFM-223 [18]) [%] | normalised response (BT-474 [19]) [%] | normalised response (BT-549 [20]) [%] | normalised response (CAL-120 [21]) [%] | normalised response (CAL-148 [22]) [%] | normalised response (CAL-51 [23]) [%] | normalised response (CAL-85-1 [24]) [%] | normalised response (DU-4475 [25]) [%] | normalised response (HCC1143 [26]) [%] | normalised response (HCC1599 [27]) [%] | normalised response (HCC1937 [28]) [%] | normalised response (HDQ-P1 [29]) [%] | normalised response (Hs578T [30]) [%] | normalised response (MCF-10A [31]) [%] | normalised response (MDA-MB-231 [32]) [%] | normalised response (MDA-MB-436 [33]) [%] | normalised response (MDA-MB-453 [34]) [%] | normalised response (MDA-MB-468 [35]) [%] | normalised response (MFM-223 [36]) [%] | normalised response (SK-BR-3) [%]
1 | Cc1ccc(F)c(NC(=O)Nc2ccc(-c3cccc4[nH]nc(N)c34)cc2)c1 [Linifanib] (10 nM) | 99.7 | 96.7 | 99.2 | 108 | 109 | 97.2 | 102 | 108 | 111 | 104 | 112 | 87 | 56.1 | 91.7 | 72.8 | 108 | 121 | 108 | 107 | 96.7 | 102 | 112 | 102 | 92.7 | 105 | 107 | 108 | 99.5 | 97.3 | 105 | 110 | 111 | 108 | 97.2 | 106 | 106 | 103
2 | S=c1[nH]cnc2nc[nH]c12 [Mercaptopurine] (100 nM) | 91.2 | 94.6 | 98.4 | 95.9 | 94.5 | 108 | 98.8 | 91.9 | 98 | 101 | 66.2 | 92.4 | 99.5 | 80.6 | 102 | 103 | 134 | 82.7 | 95.1 | 104 | 92.5 | 81.7 | 96.9 | 90.8 | 96.8 | 104 | 91.3 | 94 | 105 | 96.6 | 94.6 | 101 | 96.1 | 95.5 | 88.4 | 98.5 | 98.3
3 | Clc1ccc(C(c2ccccc2Cl)C(Cl)Cl)cc1 (configuration not stated) [Mitotane] (100 nM) | 100 | 94.6 | 92 | 101 | 101 | 105 | 97.9 | 92.2 | 100 | 95 | 95.8 | 91.4 | 78.6 | 95.5 | 88.1 | 106 | 120 | 77.9 | 94 | 99.6 | 97.8 | 96.2 | 94.8 | 101 | 97.2 | 100 | 93.7 | 95.4 | 102 | 95.3 | 92.2 | 98.7 | 97.8 | 95.5 | 92.9 | 95.6 | 97.7
4 | C=CC[C@@H]1/C=C(\C)C[C@H](C)C[C@H](OC)[C@H]2O[C@@](O)(C(=O)C(=O)N3CCCC[C@H]3C(=O)O[C@H](/C(C)=C/[C@@H]3CC[C@@H](O)[C@H](OC)C3)[C@H](C)[C@@H](O)CC1=O)[C@H](C)C[C@@H]2OC [Tacrolimus] (100 nM) | 100 | 104 | 100 | 82 | 91 | 93.4 | 100 | 99.5 | 95.4 | 107 | 69.4 | 95.7 | 57.2 | 104 | 103 | 97.8 | 186 | 101 | 100 | 98.2 | 98.8 | 111 | 77.2 | 94.6 | 101 | 101 | 95.9 | 98 | 97.7 | 96.5 | 102 | 110 | 96.4 | 103 | 93 | 106 | 89.7
5 | CO[C@H]1C[C@@H]2CC[C@@H](C)[C@@](O)(O2)C(=O)C(=O)N2CCCC[C@H]2C(=O)O[C@H]([C@H](C)C[C@@H]2CC[C@@H](OC(=O)C(C)(CO)CO)[C@H](OC)C2)CC(=O)[C@H](C)/C=C(\C)[C@@H](O)[C@@H](OC)C(=O)[C@H](C)C[C@H](C)/C=C/C=C/C=C/1C [Temsirolimus] (1 nM) | 89.6 | 109 | 102 | 96.7 | 94.9 | 97.9 | 97.5 | 117 | 109 | 118 | 113 | 66.9 | 99.6 | 94.2 | 99.8 | 100 | 135 | 90.2 | 90.8 | 68.4 | 83.4 | 82.5 | 68.3 | 74.8 | 92.3 | 77.4 | 111 | 77.8 | 94.4 | 69.9 | 102 | 98.8 | 87.2 | 88.4 | 56.3 | 79.6 | 68.7
6 | CC[C@]1(O)C[C@@H]2CN(CCc3c([nH]c4ccccc34)[C@@](C(=O)OC)(c3cc4c(cc3OC)N(C)[C@H]3[C@@](O)(C(=O)OC)[C@H](OC(C)=O)[C@]5(CC)C=CCN6CC[C@]43[C@@H]65)C2)C1 [Vinblastine] (10 nM) | 72.6 | 65.2 | 73.6 | 82.7 | 30.4 | 31.4 | 102 | 92 | 84.7 | 92.3 | 40.4 | 71.2 | 16.4 | -19.5 | 44.7 | 98 | 110 | 69.6 | 58.2 | 39.1 | 51.5 | 70.8 | 58.1 | 29.4 | 96.1 | 48.6 | 70.4 | 71 | 76.1 | 55.4 | 51.6 | 57.8 | 36 | 57.4 | 33.9 | 77.1 | 12.3
